Series [1] has as its target T1, Aβ1–42 fibrils (Homo sapiens, UniProt P05067).
T1 construct: Aβ1–42 was dissolved in hexafluoroisopropanol (HFIP)
Description: ELISA, compound binding to Aβ1–42 fibrils. The following applies: 10 µg/ml compound; optical density after pNPP incubation; value of one single experiment only. On the procedure:
Aβ1–42 peptide film was prepared from lyophilized powder (Bachem). The powder was reconstituted in HFIP to a final concentration of 1 mM, sonicated for 15 min at room temperature (RT), agitated overnight (ON), and aliquoted into non-siliconized microcentrifuge tubes (12 µl corresponding to 55 µg). The HFIP was evaporated under a stream of argon. The resulting peptide film was vacuum dried for 10 min and stored at -80°C. For direct use as peptide film, an aliquot of Aβ1–42 peptide film was reconstituted with 0.54% dimethylsulphoxide (DMSO) in phosphate buffered saline (PBS) to obtain a final concentration of 10 µg/ml and then used for the ELISA as described below. To prepare fibrils, 55 µg aliquot of peptide film was dissolved in 55 µl of 50 mM Tris-HCl, pH 7.4 and incubated at 37°C for five days. Next, the sample was centrifuged (10’000 rpm for 5 min) and the pellet was diluted in 50 mM Tris-HCl, pH 7.4.
Aβ1–42 peptide preparations were diluted in 0.05 M bicarbonate-carbonate buffer pH 9.6, to the final concentration of 10 µg/ml and coated onto ELISA plates (MaxiSorp, Nunc). After blocking (PBS; 0.05% Tween; 1% BSA), plates were incubated with 2- or 3-fold dilutions of D-compounds (starting concentration: 10 µg/ml) and incubated for 2 h at 37°C. Plates were then washed and incubated for 2 h at 37°C with the detection antibody Rabbit-a-fluorescein isothiocyanate-AP (Sigma; 1∶10’000 dilution) followed by the incubation for 2.5 h at room temperature (RT) with 1 mg/ml of phosphatase substrate (pNPP, Sigma). The absorbance signal was read at 405 nm wavelength using a Tecan plate reader (Tecan Group Lt, Männedorf, Switzerland).
ELISA plates (MaxiSorp, Nunc) were coated with anti-Aβ antibody 6E10 (Covance) at a concentration of 5 µg/ml. Either monomeric Aβ1–42 peptide film (mainly monomeric) or Aβ1–42 fibrils, which were prepared as described above, were diluted in PBS to the final concentration 10 µg/ml and mixed with 10-fold dilutions of D-peptide compounds in Eppendorf tubes (starting concentration of D-peptide compounds: 10 µg/ml). The tubes were incubated for 2 h at 37°C. Next, samples were distributed onto the ELISA plate and kept for 2 h at 37°C. Plates were washed and incubated for 2 h at 37°C with the detection antibody Rabbit-a-fluorescein isothiocyanate-AP (Sigma; 1∶10′000 dilution) following the incubation overnight (ON) at RT with 1 mg/ml of phosphatase substrate (pNPP, Sigma). The absorbance signal was read at 405 nm wavelength using the Tecan plate reader (Tecan Group Ltd, Männedorf, Switzerland).
To verify the SPR results, ELISA was employed to assay the interaction of the ACI-80 derivatives ACI-80-Kϕ, ACI-81-Kϕ, ACI-82-Kϕ, ACI-83-Kϕ, ACI-84-Kϕ, ACI-85-Kϕ, ACI-86-Kϕ, ACI-87-Kϕ, [^19F]-ACI-87-Kϕ, ACI-88-Kϕ, [^19F]-ACI-88-Kϕ, ACI-89-Kϕ, [^19F]-ACI-89-Kϕ) with Aβ1–42 fibrils and Aβ peptide film in solution containing mostly monomers and smaller oligomers (Table 4). To avoid any bias by possible conformational influences the ELISA has been carried out in two versions, once with immobilized antibody and once with immobilized Aβ1–42 as described in the methods section. Both assays yielded similar results and confirmed each other. […] Panels A and B in Figure 2 show the results for binding to Aβ1–42 fibrils and panels C and D in Figure 2 show the results for binding to freshly prepared Aβ1–42 peptide film, which contains mostly monomeric Aβ. In Table 4, the performance of the peptides is expressed relative to that of ACI-80-Kϕ.
In general terms: ELISA stands for enzyme-linked immunosorbent assay.

The nature of series [2]: Analysis of ACI-80 stability: N-terminal glutamine vs pyroglutamate content by HPLC/ESI-MS. The following applies: aqueous solution. The class given is physicochemical. How it is done: In solution, N-terminal glutamine peptides such as D1 are prone to convert into N-terminal pyroglutamate species: Gln-SHYRHISPAQV → Pyr-SHYRHISPAQV. Therefore, the stability of solid ACI-80, solid ACI-80-Kϕ (ϕ: fluorescein isothiocyanate, covalently linked to the peptide via a lysine (K)) and [^127I]-ACI-80 in solution was investigated by JPT Peptide Technologies GmbH, Berlin, Germany using HPLC/ESI-MS whereby the relative content of N-terminal Gln peptide and N-terminal Pyr peptide was assessed.
An important observation during initial compound stability characterization experiments was the partial conversion of the N-terminal glutamine of [^127I]-ACI-80 into pyro-glutamate. It is known that peptides with an N-terminal glutamine are prone to conversion of this residue into a pyroglutamate. Therefore, the composition of freshly synthesized and untreated ACI-80 and ACI-80-Kϕ as well as [^127I]-ACI-80 after iodination were investigated. […] It was observed that freshly synthesized ACI-80 and ACI-80-Kϕ contained only minor fractions of pyroglutamic acid while about one third of [^127I]-ACI-80 in solution already converted into N-terminal pyroglutamate species.

Square brackets hold non-standard residues; d marks the D form. Peptide text beside a SMILES is read from it. * marks the point of attachment. 5FAM = O=C1OC2(c3ccc(O)cc3Oc3cc(O)ccc32)c2ccc(C(=O)*)cc21

T1 sequence (P05067 672-713 limits assumed): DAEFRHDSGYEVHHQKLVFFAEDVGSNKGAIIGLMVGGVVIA

As for `CC[C@@H](C)[C@@H](NC(=O)[C@@H](Cc1c[nH]cn1)NC(=O)[C@@H](CCCNC(=N)N)NC(=O)[C@@H](Cc1ccc(O)cc1)NC(=O)[C@@H](Cc1c[nH]cn1)NC(=O)[C@@H](CO)NC(=O)[C@H](N)CCC(N)=O)C(=O)N[C@H](CO)C(=O)N1CCC[C@@H]1C(=O)N[C@H](C)C(=O)N[C@H](CCC(N)=O)C(=O)N[C@H](CCCCN)C(=O)N[C@H](CCCCNC(=O)c1ccc2c(c1)C(=O)OC21c2ccc(O)cc2Oc2cc(O)ccc21)C(=O)O` [ACI-87-Kϕ] (H-[dQ][dS][dH][dY][dR][dH][dI][dS][dP][dA][dQ][dK][dK](5FAM)-OH; N-terminus and C-terminus assumed), the “binding value, binding Aβ1–42 fibrils” value in series [1] is reported as “*0.93”. For the same compound, the “stability in aqueous solution” value in series [2] was “stable in aqueous solution”.
The like results for `CC[C@@H](C)[C@@H](NC(=O)[C@@H](Cc1c[nH]cn1)NC(=O)[C@@H](CCCNC(=N)N)NC(=O)[C@@H](Cc1ccc(O)cc1)NC(=O)[C@@H](Cc1c[nH]cn1)NC(=O)[C@H](N)CO)C(=O)N[C@H](CO)C(=O)N1CCC[C@@H]1C(=O)N[C@H](C)C(=O)N[C@H](CCC(N)=O)C(=O)N[C@H](CCCCN)C(=O)N[C@H](CCCCNC(=O)c1ccc2c(c1)C(=O)OC21c2ccc(O)cc2Oc2cc(O)ccc21)C(=O)O` [ACI-88-Kϕ] (H-[dS][dH][dY][dR][dH][dI][dS][dP][dA][dQ][dK][dK](5FAM)-OH; N-terminus and C-terminus assumed) were, in that order, “*1.78” and “stable in aqueous solution”.
For `CC[C@@H](C)[C@@H](NC(=O)[C@@H](Cc1c[nH]cn1)NC(=O)[C@@H](CCCNC(=N)N)NC(=O)[C@@H](Cc1ccc(O)cc1)NC(=O)[C@@H](Cc1c[nH]cn1)NC(=O)[C@@H](CO)NC(=O)[C@H]1CCCN1)C(=O)N[C@H](CO)C(=O)N1CCC[C@@H]1C(=O)N[C@H](C)C(=O)N[C@H](CCC(N)=O)C(=O)N[C@H](CCCCN)C(=O)N[C@H](CCCCNC(=O)c1ccc2c(c1)C(=O)OC21c2ccc(O)cc2Oc2cc(O)ccc21)C(=O)O` [ACI-89-Kϕ] (H-[dP][dS][dH][dY][dR][dH][dI][dS][dP][dA][dQ][dK][dK](5FAM)-OH; N-terminus and C-terminus assumed), in that order: “*1.49” and “stable in aqueous solution”.
